In US20230099031A1, “BIFUNCTIONAL AGENTS FOR PROTEIN RECRUITMENT AND/OR DEGRADATION” (Orionis Biosciences, Inc., priority 2019, published 2023) one finds IC50 data, which are given here for 19 compounds.

One may read the pIC50 as the IC50 on a negative log10 scale, so that one unit is a factor of ten.

The structures appear in SMILES notation. pIC50: −log10 of the molar value. Counter-ions that a name gives are not always drawn.

For one assay, the target named is T1, CRBN (Homo sapiens, UniProt Q96SW2).
T1 construct: expressed in transfected cells; host or cells: HEK293T
Put plainly: Competition Assay: MAPPIT-like, competition with trimethoprim-lenalidomide hybrid ligand for binding to CRBN in HEK293T cells. The format is cell-based. The following applies: HEK293T cells, 300 nM trimethoprim-lenalidomide hybrid ligand, luciferase 24 hours after compound treatment; read-out: Competition IC50. The source says: A bait protein (protein A) is expressed as a fusion protein in which it is genetically fused to an engineered intracellular receptor domain of the leptin receptor, which is itself fused to the extracellular domain of the erythropoietin (Epo) receptor. Binding of Epo ligand to the EpoR component results in activation of receptor-associated intracellular JAK2. However, activated JAK2 cannot activate the leptin receptor to trigger STAT3 binding and its phosphorylation because its tyrosine residues, normally phosphorylated by activated JAK2, have been mutated. Reconstitution of a JAK2 phosphorylatable STAT3 docking site is instead created through interaction of a protein B with protein A, whereby protein B is fused to a cytoplasmic domain of the gp130 receptor (which now harbors appropriate tyrosine resides recognized by the activated JAK2 kinase). Thus, physical interaction of protein A with protein B reconstitutes and Epo triggers JAK2-STAT3 signaling pathway activation. Activation of STAT3 can be monitored by introduction of a STAT3-responsive reporter gene, including a luciferase-encoding gene or a gene encoding a fluorescent marker such as GFP or some other type of fluorescent protein (EGF etc.). In this manner, the MAPPIT assay provides a versatile assay to assess such recombinant protein-protein interactions, or compound- or hybrid ligand-induced protein-protein interactions, in intact cells.
Formation of the complex results in activation of a STAT-responsive luciferase reporter gene. That signal is set to 100% luciferase activity. In a separate sample set up, cells are prepared in the same manner but, in addition, co-incubated with a test compound whose interaction with CRBN is investigated. […] Increasing concentrations of test compound are assessed to determine CRBN binding efficiency as determined in this type of ligand competition experiment in living cells. Specificity of signal inhibition is assessed by a parallel experimental set up in which test compound effect is assessed for inhibition of signal generated by a control gp130 fusion protein (CTRL) that directly binds to the DHFR-fusion protein in the absence of hybrid ligand (i.e. a direct interaction of the proteins).
In more detail, HEK293T cells are cultured in Dulbecco's modified Eagle's medium supplemented with 10% fetal calf serum, incubated at 37° C., 8% CO2. […] Data points represent the average luciferase activity of triplicate samples derived from cells treated with leptin+test compound for the REM2 control (CTRL) or cells treated with leptin+hybrid ligand+test compound (CRBN) relative to leptin (CTRL) or leptin+hybrid ligand (CRBN) only treated samples (the signals obtained in absence of added test compound for both cases is set at 100% of luciferase activity on y-axis). Error bars represent standard deviations. Curves are fit using 4-parameter nonlinear regression in […] PRISM software
Take `C#CCOCCOCCOCCNc1nc(Nc2ccc3c(c2)CN(C2CCC(=O)NC2=O)C3=O)c2ccsc2n1` (stereo not shown) [Compound 5.01]: the pIC50 was 6.36. On to `CC(C)(C)OC(=O)NCCOCCOCCOCCn1cc(CNc2nc(Nc3ccc4c(c3)CN(C3CCC(=O)NC3=O)C4=O)c3ccsc3n2)nn1` (stereo not shown) [Compound 5.02], for which the pIC50 is 6.42. For the compound `C#CCOCCOCCOCCNC(=O)COc1ccc2nc(C(=O)Nc3ccc4c(c3)C(=O)N(C3CCC(=O)NC3=O)C4)ccc2c1` (stereo not shown) [Compound 5.03], the pIC50 is 6.06. On the same count and under the same terms, in the case of `C#CCOCCOCCOCCOCC(=O)Nc1cc(Br)c2c(c1OC)C(=O)N(C1CCC(=O)NC1=O)C2` (stereo not shown) [Compound 5.04] it was 6.72. The same measure, in the same setting: the value for `C#CCOCCOCCOCCOCC(=O)Nc1ccc(-c2cccc3c2C(=O)N(C2CCC(=O)NC2=O)C3)cc1` (stereo not shown) [Compound 5.05] was 6.71; that for `C#CCOCCOCCOCCNC(=O)c1ccc(CNC(=O)CNc2ccc3c(c2)C(=O)N(C2CCC(=O)NC2=O)C3)cc1` (stereo not shown) [Compound 5.08] was 5.28; that for `CC/C(=C(\c1ccccc1)c1ccc(OCCN(C)CC(=O)NCCNC(=O)COc2cccc3c2CN(C2CCC(=O)NC2=O)C3=O)cc1)c1ccccc1` (stereo not shown) [Compound 5.56] was 5.24. Same read-out and setting: the value for `Cc1sc2c(c1C)C(c1ccc(Cl)cc1)=N[C@@H](CC(=O)NCCOCCOCCOCCOCCNC(=O)COc1cccc3c1CN(C1CCC(=O)NC1=O)C3=O)c1nnc(C)n1-2` (stereo partly shown) [Compound 5.57] was 6.96. Take `Cc1sc2c(c1C)C(c1ccc(Cl)cc1)=N[C@@H](CC(=O)NCCOCCOCCOCCNC(=O)COc1cccc3c1CN(C1CCC(=O)NC1=O)C3=O)c1nnc(C)n1-2` (stereo partly shown) [Compound 5.58]: the pIC50 was 7.00.

With `Cc1sc2c(c1C)C(c1ccc(Cl)cc1)=N[C@@H](CC(=O)NCCOCCOCCNC(=O)COc1cccc3c1CN(C1CCC(=O)NC1=O)C3=O)c1nnc(C)n1-2` (stereo partly shown) [Compound 5.59], the negative logarithm of the IC50 (pIC50) is 7.17. With `Cc1sc2c(c1C)C(c1ccc(Cl)cc1)=N[C@@H](CC(=O)NCCNC(=O)COc1cccc3c1CN(C1CCC(=O)NC1=O)C3=O)c1nnc(C)n1-2` (stereo partly shown) [Compound 5.60], the negative-log IC50 (pIC50) is 6.94.

The assay is the same for the next values; noted with them: protocol and reagents of Example 1; read-out: IC50 Competition.
On to `O=C1N=c2ccc(NC(=O)NCc3ccccc3)cc2=N1` [1-benzyl-3-(2-oxobenzimidazol-5-yl)urea], for which the negative logarithm of the IC50 (pIC50) was 4.62. As for `O=C(O)CNc1cccc2c1CN(C1CCC(=O)NC1=O)C2=O` (stereo not shown) [2-[[2-(2,6-dioxo-3-piperidyl)-1-oxo-isoindolin-4-yl]amino]acetic acid], the pIC50 was 4.86.

As for `O=C1CCC(N2C(=O)c3ccccc3C2OCc2ccccc2)C(=O)N1` (stereo not shown) [3-(1-benzyloxy-3-oxo-isoindolin-2-yl)piperidine-2,6-dione], the negative logarithm of the IC50 (pIC50) is 4.23. Same read-out and setting: the value for `O=C1CCC(N2Cc3ccc(Nc4ncnc5ccccc45)cc3C2=O)C(=O)N1` (stereo not shown) [C80382 acetic acid salt, acetic acid;3-[1-oxo-6-(quinazolin-4-ylamino)isoindolin-2-yl]piperidine-2,6-dione] was 7.48.

With `COc1ccc(C2c3ccccc3C(=O)N2C2CCC(=O)NC2=O)cc1` (stereo not shown) [Compound C11892, 3-[1-(4-methoxyphenyl)-3-oxo-isoindolin-2-yl]piperidine-2,6-dione], the negative-log IC50 (pIC50) was 5.09. For `O=C1CCC(N2Cc3ccc(NCC(=O)N4CCCCC4)cc3C2=O)C(=O)N1` (stereo not shown) [Compound C12581], the pIC50 is 5.00. The same measure, in the same setting: the value for `CC1CCN(C(=O)CNc2ccc3c(c2)C(=O)N(C2CCC(=O)NC2=O)C3)CC1` (stereo not shown) [Compound C12582, 3-[6-[[2-(4-methyl-1-piperidyl)-2-oxo-ethyl]amino]-1-oxo-isoindolin-2-yl]piperidine-2,6-dione] was 1.43; that for `CC1CCCN(C(=O)CNc2ccc3c(c2)C(=O)N(C2CCC(=O)NC2=O)C3)C1` (stereo not shown) [Compound C12583, 3-[6-[[2-(3-methyl-1-piperidyl)-2-oxo-ethyl]amino]-1-oxo-isoindolin-2-yl]piperidine-2,6-dione] was 7.31.
